Values of other authors, collected in patent US20050059682A1, “Compositions and methods for treatment of cancer” (priority 2003, published 2005).

Key:
[1] = tested on: prostate cancer; settings: single-agent chemotherapy of prostate cancer
[2] = tested on: HDAC; settings: in vitro or in vivo for SAHA, SBHA, CBHA
[3] = tested on: mammalian HDAC

Compound | efficacy as single agent [1] | also measured
O=c1[nH]cc(F)c(=O)[nH]1 [5-fluorouracil] | minimal efficacy | –
O=C(/C=C/c1cccc(C(=O)NO)c1)NO [CBHA, m-carboxy-cinnamic acid bishydroxamic acid] | – | concentration at which HDAC is inhibited [2]: micromolar concentration or lower
C/C=C1\NC(=O)[C@H]2CSSCC/C=C/[C@H](CC(=O)N[C@H](C(C)C)C(=O)N2)OC(=O)[C@H](C(C)C)NC1=O [FR901228] | – | concentration at which HDAC is inhibited [2]: micromolar concentrations
CC(/C=C/C(=O)NO)=C\[C@@H](C)C(=O)c1ccc(N(C)C)cc1 [TSA, trichostatin A] | – | inhibition of mammalian HDAC [3]: potent inhibitor
N.N.[Cl][Pt][Cl] [cisplatin] | minimal efficacy | –
O=P1(N(CCCl)CCCl)NCCCO1 (stereo not shown) [cyclophosphamide] | minimal efficacy | –
Nc1ncn([C@H]2C[C@H](O)[C@@H](CO)O2)c(=O)n1 [decitabine, 5-aza-2′-deoxycytidine] | – | half life in vivo: short half life; tissue distribution (in vivo): excellent tissue distribution
COc1cccc2c1C(=O)c1c(O)c3c(c(O)c1C2=O)C[C@@](O)(C(=O)CO)C[C@@H]3O[C@H]1C[C@H](N)[C@H](O)[C@H](C)O1 [doxorubicin] | minimal efficacy | –
C[C@]12CC[C@@H]3c4ccc(OC(=O)N(CCCl)CCCl)cc4CC[C@H]3[C@@H]1CC[C@@H]2O [estramustine] | minimal efficacy | –
CN(Cc1cnc2nc(N)nc(N)c2n1)c1ccc(C(=O)N[C@@H](CCC(=O)O)C(=O)O)cc1 [methotrexate] | minimal efficacy | –
O=C1c2c(O)ccc(O)c2C(=O)c2c(NCCNCCO)ccc(NCCNCCO)c21 [mitoxantrone] | minimal efficacy | –
depudecin | – | concentration at which HDAC is inhibited [2]: micromolar concentrations
